# Assay results from ChEMBL document CHEMBL5042478, “Design, Synthesis, and Evaluation of VHL-Based EZH2 Degraders to Enhance Therapeutic Activity against Lymphoma” (J Med Chem, 2021).
# Calls of active or inactive are those of the source. The rule behind the calls is not given here.
# Assays:
# [1] = molecular target: T1, Protein cereblon/Histone-lysine N-methyltransferase EZH2 (Homo sapiens) (UniProt Q15910+Q96SW2); assay: Protac activity at CRBN E3 ligase/EZH2 in human 22Rv1 cells assessed as degradation of EZH2 at 0.3 uM incubated for 48 hrs by Western blot analysis; type: cell-based
# [2] = molecular target: T1, Protein cereblon/Histone-lysine N-methyltransferase EZH2 (Homo sapiens); assay: Protac activity at CRBN E3 ligase/EZH2 in human 22Rv1 cells assessed as inhibition of H3K27me3 at 0.3 uM incubated for 48 hrs by Western blot analysis; type: cell-based
# [3] = molecular target: T1, Protein cereblon/Histone-lysine N-methyltransferase EZH2 (Homo sapiens); assay: Protac activity at CRBN E3 ligase/EZH2 in human 22Rv1 cells assessed as inhibition of H3K27me3 at 3 uM incubated for 48 hrs by Western blot analysis; type: cell-based
# [4] = molecular target: T1, Protein cereblon/Histone-lysine N-methyltransferase EZH2 (Homo sapiens); assay: Protac activity at CRBN E3 ligase/EZH2 in human 22Rv1 cells assessed as inhibition of H3K27me3 at 1 uM incubated for 48 hrs by Western blot analysis; type: cell-based
# [5] = molecular target: T1, Protein cereblon/Histone-lysine N-methyltransferase EZH2 (Homo sapiens); assay: Protac activity at CRBN E3 ligase/EZH2 in human 22Rv1 cells assessed as degradation of EZH2 at 3 uM incubated for 48 hrs by Western blot analysis; type: cell-based
# [6] = molecular target: T1, Protein cereblon/Histone-lysine N-methyltransferase EZH2 (Homo sapiens); assay: Protac activity at CRBN E3 ligase/EZH2 in human 22Rv1 cells assessed as degradation of EZH2 at 1 uM incubated for 48 hrs by Western blot analysis; type: cell-based
# [7] = molecular target: T2, von Hippel-Lindau disease tumor suppressor/Histone-lysine N-methyltransferase EZH2 (Homo sapiens) (UniProt Q15910+P40337); assay: Protac activity at VHL/EZH2 in human 22Rv1 cells assessed as reduction in EZH2 level at 1 uM incubated for 48 hrs by Western blot analysis; type: cell-based
# [8] = molecular target: T2, von Hippel-Lindau disease tumor suppressor/Histone-lysine N-methyltransferase EZH2 (Homo sapiens); assay: Protac activity at VHL/EZH2 in human 22Rv1 cells assessed as reduction in H3K27me3 level at 1 uM incubated for 48 hrs by Western blot analysis; type: cell-based
# [9] = molecular target: T3, von Hippel-Lindau disease tumor suppressor/Polycomb protein EED (Homo sapiens) (UniProt O75530+P40337); assay: Protac activity at VHL/EED in human SUDHL2 cells assessed as reduction in EED level at 2 uM incubated for 24 hrs by Western blot analysis; type: cell-based
# SU-DHL-6 [10] = assay: Induction of cell cycle arrest in human SU-DHL-6 cells assessed as accumulation of cells at sub G1 phase after 24 hrs by flow cytometry; type: functional, cell-based; conditions: dose 1-5 µM
# [11] = molecular target: T2, von Hippel-Lindau disease tumor suppressor/Histone-lysine N-methyltransferase EZH2 (Homo sapiens); assay: Protac activity at VHL/EZH2 in human 22Rv1 cells assessed as reduction in H3K27me3 level after 24 hrs by Western blot analysis; type: cell-based; conditions: dose 1-6 µM
# SU-DHL-6 [12] = assay: Induction of cell cycle arrest in human SU-DHL-6 cells after 24 hrs by flow cytometry; type: functional, cell-based; conditions: dose 1-5 µM
# [13] = molecular target: T2, von Hippel-Lindau disease tumor suppressor/Histone-lysine N-methyltransferase EZH2 (Homo sapiens); assay: Protac activity at VHL/EZH2 in human 22Rv1 cells assessed as EZH2 protein abundance after 24 hrs by Western blot analysis; type: cell-based; conditions: dose 1-6 µM
# [14] = molecular target: T2, von Hippel-Lindau disease tumor suppressor/Histone-lysine N-methyltransferase EZH2 (Homo sapiens); assay: Protac activity at VHL/EZH2 in human 22Rv1 cells assessed as increase in EZH2 ubiquitination at 2 uM for 12 hrs by immunoprecipitation based Western blot analysis; type: cell-based
# [15] = molecular target: T2, von Hippel-Lindau disease tumor suppressor/Histone-lysine N-methyltransferase EZH2 (Homo sapiens); assay: Protac activity at VHL/EZH2 in human 22Rv1 cells assessed as EZH2 degradation at 2 uM after 2 to 4 hrs by Western blot analysis; type: cell-based; conditions: time 2-4 hrs
# [16] = molecular target: T4, von Hippel-Lindau disease tumor suppressor/Polycomb protein SUZ12 (Homo sapiens) (UniProt Q15022+P40337); assay: Protac activity at VHL/SUZ12 in human SUDHL2 cells assessed as reduction in SUZ12 level at 2 uM incubated for 24 hrs by Western blot analysis; type: cell-based
# [17] = molecular target: Histone-lysine N-methyltransferase EZH2 (Homo sapiens) (UniProt Q15910); assay: Induction of EZH2 degradation in human SUDHL2 cells at 0.1 to 5 uM after 24 hrs by Western blot analysis; type: cell-based; conditions: dose 0.1-5 µM
# SU-DHL-6 [18] = assay: Induction of apoptosis in human SU-DHL-6 cells assessed as increase in cleaved PARP level at 1 to 5 uM incubated for 48 hrs by Western blot analysis; type: functional, cell-based; conditions: dose 1-5 µM
# [19] = molecular target: T2, von Hippel-Lindau disease tumor suppressor/Histone-lysine N-methyltransferase EZH2 (Homo sapiens); assay: Protac activity at VHL/EZH2 in human 22Rv1 cells assessed as reduction in EZH2 level at 2 uM preincubated with VH032 for 2 hrs followed by compound addition and measured after 24 hrs by Western blot analysis; type: cell-based; conditions: time 26.0 hrs
# SU-DHL-6 [20] = assay: Antiproliferative activity against human SU-DHL-6 cells assessed as reduction in cell viability at 0.01 to 10 uM measured after 5 days by MTS assay; type: functional, cell-based; conditions: dose 0.01-10 µM, time 5.0 day
# [21] = molecular target: T2, von Hippel-Lindau disease tumor suppressor/Histone-lysine N-methyltransferase EZH2 (Homo sapiens); assay: Protac activity at VHL/EZH2 in VHL knockdown human 22Rv1 cells assessed as reduction in EZH2 level at 2 uM for 24 hrs by Western blot analysis; type: cell-based
# SU-DHL-2 = assay: Antiproliferative activity against human SUDHL2 cells assessed as reduction in cell viability at 0.01 to 10 uM measured after 5 days by MTS assay; type: functional, cell-based; conditions: dose 0.01-10 µM, time 5.0 day
# SUD4 = assay: Antiproliferative activity against human SU-DHL-4 cells assessed as reduction in cell viability at 0.01 to 10 uM measured after 5 days by MTS assay; type: functional, cell-based; conditions: dose 0.01-10 µM, time 5.0 day
# [22] = molecular target: von Hippel-Lindau disease tumor suppressor/Histone-lysine N-methyltransferase EZH1 (Homo sapiens) (UniProt Q92800+P40337); assay: Protac activity at VHL/EZH1 in human 22Rv1 cells assessed as EZH1 protein abundance at 1 to 6 uM after 24 hrs by Western blot analysis; type: cell-based; conditions: dose 1-6 µM
# [23] = molecular target: T3, von Hippel-Lindau disease tumor suppressor/Polycomb protein EED (Homo sapiens); assay: Protac activity at VHL/EED in human 22Rv1 cells assessed as reduction in EED level at 2 uM incubated for 24 hrs by Western blot analysis; type: cell-based
# [24] = molecular target: T2, von Hippel-Lindau disease tumor suppressor/Histone-lysine N-methyltransferase EZH2 (Homo sapiens); assay: Protac activity at VHL/EZH2 in human 22Rv1 cells assessed as maximum degradation efficacy at 2 uM by Western blot analysis relative to control; type: cell-based
# [25] = molecular target: T4, von Hippel-Lindau disease tumor suppressor/Polycomb protein SUZ12 (Homo sapiens); assay: Protac activity at VHL/SUZ12 in human 22Rv1 cells assessed as reduction in SUZ12 level at 2 uM incubated for 24 hrs by Western blot analysis; type: cell-based
# SU-DHL-6 [26] = assay: Induction of apoptosis in human SU-DHL-6 cells assessed as increase in cleaved capase-3 level at 1 to 5 uM incubated for 48 hrs by Western blot analysis; type: functional, cell-based; conditions: dose 1-5 µM
# SU-DHL-6 [27] = assay: Induction of apoptosis in human SU-DHL-6 cells at 1 to 5 uM incubated for 48 hrs by Annexin V/propidium iodide staining based flow cytometry; type: functional, cell-based; conditions: dose 1-5 µM
# T1 sequence (Q15910 whole entry, looked up): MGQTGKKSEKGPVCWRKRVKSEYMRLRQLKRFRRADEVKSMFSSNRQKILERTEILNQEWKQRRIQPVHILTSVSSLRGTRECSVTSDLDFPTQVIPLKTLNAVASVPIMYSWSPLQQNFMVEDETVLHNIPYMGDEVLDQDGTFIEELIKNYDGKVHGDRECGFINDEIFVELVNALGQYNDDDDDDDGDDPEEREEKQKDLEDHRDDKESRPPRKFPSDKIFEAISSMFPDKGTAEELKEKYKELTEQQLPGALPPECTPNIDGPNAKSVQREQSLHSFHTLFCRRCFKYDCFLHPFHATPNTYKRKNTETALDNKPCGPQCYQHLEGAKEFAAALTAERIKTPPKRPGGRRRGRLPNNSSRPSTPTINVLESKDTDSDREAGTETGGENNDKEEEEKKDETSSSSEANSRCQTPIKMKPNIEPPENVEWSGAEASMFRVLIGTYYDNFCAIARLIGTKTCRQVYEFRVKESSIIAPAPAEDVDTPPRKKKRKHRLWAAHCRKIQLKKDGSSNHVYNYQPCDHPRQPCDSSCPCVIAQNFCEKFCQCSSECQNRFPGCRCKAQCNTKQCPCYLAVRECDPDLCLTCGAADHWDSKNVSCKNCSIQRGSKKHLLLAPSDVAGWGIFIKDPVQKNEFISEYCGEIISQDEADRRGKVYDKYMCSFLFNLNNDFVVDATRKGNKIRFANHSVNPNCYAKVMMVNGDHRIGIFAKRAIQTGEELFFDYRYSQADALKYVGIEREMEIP
# T1 sequence (Q96SW2 whole entry, looked up): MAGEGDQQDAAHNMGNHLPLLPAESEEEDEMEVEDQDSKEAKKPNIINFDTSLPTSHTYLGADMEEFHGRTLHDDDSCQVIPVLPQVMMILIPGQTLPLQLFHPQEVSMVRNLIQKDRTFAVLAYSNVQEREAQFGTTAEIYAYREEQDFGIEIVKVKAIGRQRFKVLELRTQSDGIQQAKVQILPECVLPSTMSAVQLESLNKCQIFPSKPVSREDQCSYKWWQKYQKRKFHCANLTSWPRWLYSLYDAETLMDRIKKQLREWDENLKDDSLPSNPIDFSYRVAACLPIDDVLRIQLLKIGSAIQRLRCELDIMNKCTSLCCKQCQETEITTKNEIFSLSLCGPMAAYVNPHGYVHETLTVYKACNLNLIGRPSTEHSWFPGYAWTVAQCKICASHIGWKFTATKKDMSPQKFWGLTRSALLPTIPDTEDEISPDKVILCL
# T2 sequence (P40337 whole entry, looked up): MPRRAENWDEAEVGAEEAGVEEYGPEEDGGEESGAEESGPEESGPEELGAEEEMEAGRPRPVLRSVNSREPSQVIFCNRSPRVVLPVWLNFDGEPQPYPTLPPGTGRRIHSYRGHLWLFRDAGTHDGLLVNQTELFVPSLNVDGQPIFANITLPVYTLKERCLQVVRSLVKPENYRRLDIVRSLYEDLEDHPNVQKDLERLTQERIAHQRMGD
# T2 sequence (Q15910 whole entry, looked up): as the sequence (Q15910 whole entry, looked up) above
# T3 sequence (O75530 2-441 limits assumed): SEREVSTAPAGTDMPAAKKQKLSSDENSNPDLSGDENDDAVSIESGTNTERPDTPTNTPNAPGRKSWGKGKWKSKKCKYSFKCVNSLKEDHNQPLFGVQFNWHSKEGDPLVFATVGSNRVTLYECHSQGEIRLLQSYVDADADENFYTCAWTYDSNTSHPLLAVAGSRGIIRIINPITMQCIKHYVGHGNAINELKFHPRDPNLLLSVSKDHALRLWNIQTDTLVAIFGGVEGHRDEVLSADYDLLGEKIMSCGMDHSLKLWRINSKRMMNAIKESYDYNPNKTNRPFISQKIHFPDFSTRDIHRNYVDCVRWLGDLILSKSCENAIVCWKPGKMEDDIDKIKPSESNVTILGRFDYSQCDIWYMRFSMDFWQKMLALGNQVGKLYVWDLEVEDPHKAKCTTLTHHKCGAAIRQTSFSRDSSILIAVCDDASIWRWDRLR
# T3 sequence (P40337 whole entry partner): as the sequence (P40337 whole entry, looked up) above
# T4 sequence (P40337 whole entry, looked up): as above
# T4 sequence (Q15022 whole entry, looked up): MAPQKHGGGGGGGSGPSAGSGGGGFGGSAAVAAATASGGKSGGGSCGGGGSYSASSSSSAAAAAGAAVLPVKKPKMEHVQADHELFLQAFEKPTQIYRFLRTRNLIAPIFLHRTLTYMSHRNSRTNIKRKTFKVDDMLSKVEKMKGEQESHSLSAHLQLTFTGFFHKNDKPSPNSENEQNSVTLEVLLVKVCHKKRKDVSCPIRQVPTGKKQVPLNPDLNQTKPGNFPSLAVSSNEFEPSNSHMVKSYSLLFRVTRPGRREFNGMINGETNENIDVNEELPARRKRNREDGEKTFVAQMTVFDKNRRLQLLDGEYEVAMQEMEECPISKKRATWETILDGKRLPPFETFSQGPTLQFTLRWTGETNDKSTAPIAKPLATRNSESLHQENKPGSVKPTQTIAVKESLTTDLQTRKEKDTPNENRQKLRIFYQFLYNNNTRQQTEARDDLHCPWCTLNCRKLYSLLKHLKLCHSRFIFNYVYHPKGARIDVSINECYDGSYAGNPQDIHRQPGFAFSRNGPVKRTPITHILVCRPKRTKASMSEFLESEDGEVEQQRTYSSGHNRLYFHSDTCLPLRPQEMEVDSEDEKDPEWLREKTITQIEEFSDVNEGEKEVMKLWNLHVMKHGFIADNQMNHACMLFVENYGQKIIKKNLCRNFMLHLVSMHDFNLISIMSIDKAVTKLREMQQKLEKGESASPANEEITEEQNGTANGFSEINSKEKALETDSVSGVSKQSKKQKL
# Histone-lysine N-methyltransferase EZH2 (Homo sapiens), sequence (Q15910 whole entry, looked up): as the sequence (Q15910 whole entry, looked up) above
# von Hippel-Lindau disease tumor suppressor/Histone-lysine N-methyltransferase EZH1 (Homo sapiens), sequence (P40337 whole entry, looked up): as the sequence (P40337 whole entry, looked up) above
# von Hippel-Lindau disease tumor suppressor/Histone-lysine N-methyltransferase EZH1 (Homo sapiens), sequence (Q92800 whole entry, looked up): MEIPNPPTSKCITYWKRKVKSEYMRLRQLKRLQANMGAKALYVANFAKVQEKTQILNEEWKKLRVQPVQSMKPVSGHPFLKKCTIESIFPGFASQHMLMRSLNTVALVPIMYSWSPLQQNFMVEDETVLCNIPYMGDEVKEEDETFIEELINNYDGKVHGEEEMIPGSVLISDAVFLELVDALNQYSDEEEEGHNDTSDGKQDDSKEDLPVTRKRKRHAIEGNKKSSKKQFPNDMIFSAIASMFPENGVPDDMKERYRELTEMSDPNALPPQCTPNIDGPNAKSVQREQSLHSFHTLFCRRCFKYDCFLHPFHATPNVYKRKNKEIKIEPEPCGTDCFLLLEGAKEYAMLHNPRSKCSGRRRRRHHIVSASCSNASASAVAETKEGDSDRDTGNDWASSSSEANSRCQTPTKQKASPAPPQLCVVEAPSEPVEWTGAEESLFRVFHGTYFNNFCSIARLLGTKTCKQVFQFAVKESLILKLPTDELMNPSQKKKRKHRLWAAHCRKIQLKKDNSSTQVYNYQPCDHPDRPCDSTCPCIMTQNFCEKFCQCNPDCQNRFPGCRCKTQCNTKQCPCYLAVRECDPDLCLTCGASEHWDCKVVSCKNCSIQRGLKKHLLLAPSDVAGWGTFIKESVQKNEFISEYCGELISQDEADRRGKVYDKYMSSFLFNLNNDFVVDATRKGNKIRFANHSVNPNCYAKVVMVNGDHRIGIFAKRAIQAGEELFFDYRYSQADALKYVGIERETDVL
structure (smiles),measurement,setting,value
CCN(c1cc(-c2ccc(C(=O)NCCCCCCCCNC(=O)COc3cccc4c3C(=O)N(C3CCC(=O)NC3=O)C4=O)cc2)cc(C(=O)NCc2c(C)cc(C)[nH]c2=O)c1C)C1CCOCC1 (stereo not drawn),Activity,[1],inactive
same,Activity,[2],inactive
same,Activity,[3],Active
same,Activity,[4],inactive
same,Activity,[5],inactive
same,Activity,[6],inactive
CCN(c1cc(-c2ccc(C(=O)NCCOCCOCCOCCOCC(=O)N[C@H](C(=O)N3C[C@H](O)C[C@H]3C(=O)NCc3ccc(-c4scnc4C)cc3)C(C)(C)C)cc2)cc(C(=O)NCc2c(C)cc(C)[nH]c2=O)c1C)C1CCOCC1,Activity,[7],inactive
same,Activity,[8],inactive
CCN(c1cc(-c2ccc(C(=O)NCCOCCOCCOCCOc3cccc4c3C(=O)N(C3CCC(=O)NC3=O)C4=O)cc2)cc(C(=O)NCc2c(C)cc(C)[nH]c2=O)c1C)C1CCOCC1 (stereo not drawn),Activity,[1],inactive
same,Activity,[2],inactive
same,Activity,[3],Active
same,Activity,[4],Active
same,Activity,[5],inactive
same,Activity,[6],inactive
CCN(c1cc(-c2ccc(OCCOCCOCC(=O)N[C@H](C(=O)N3C[C@H](O)C[C@H]3C(=O)NCc3ccc(-c4scnc4C)cc3)C(C)(C)C)cc2)cc(C(=O)NCc2c(C)cc(C)[nH]c2=O)c1C)C1CCOCC1,Activity,[9],Active
same,Activity,SU-DHL-6 [10],Dose-Dependent Effect
same,Activity,[11],Dose-Dependent Effect
same,Activity,[7],Active
same,Activity,SU-DHL-6 [12],Dose-Dependent Effect
same,Activity,[13],Dose-Dependent Effect
same,Activity,[14],Active
same,Activity,[15],Active
same,Activity,[16],Active
same,Activity,[17],Active
same,Activity,SU-DHL-6 [18],Active
same,Activity,[19],inactive
same,Activity,SU-DHL-6 [20],Active
same,Activity,[21],inactive
same,Activity,SU-DHL-2,Active
same,Activity,SUD4,Active
same,Activity,[22],inactive
same,Activity,[23],Active
same,Emax,[24],80%
same,Activity,[8],Active
same,Activity,[25],Active
same,Activity,SU-DHL-6 [26],Active
same,Activity,SU-DHL-6 [27],Dose-Dependent Effect
CCN(c1cc(-c2ccc(C(=O)NCCOCCOCCOc3cccc4c3C(=O)N(C3CCC(=O)NC3=O)C4=O)cc2)cc(C(=O)NCc2c(C)cc(C)[nH]c2=O)c1C)C1CCOCC1 (stereo not drawn),Activity,[1],inactive
same,Activity,[2],inactive
same,Activity,[3],inactive
same,Activity,[4],inactive
same,Activity,[5],inactive
same,Activity,[6],inactive
